Data published in patent US20250099609A1 (priority 2023, published 2025).

Key:
[1] = test system: post-menopausal osteoporosis; test: Post-menopausal osteoporosis in animals; assay type: in vivo
From the text: The above embodiments also relate to the field of medicine for an article of manufacture delivering a prophylactic and therapeutic tissue strategy for osteoporosis. The remarkable increase in average life expectancy during the 20th century ranks as one of society's greatest achievements. As a result, the world's elderly population (aged ≥65 years) continues to grow at an unprecedented rate. As the proportion of the oldest-old (aged >85 years) and length of life expectancy increases, a rise in age-related degenerating diseases, disability, and prolonged dependency is projected. Age-related bone loss and osteoporosis is inevitable in both men and women, and can lead to fragility fractures, immobility, and disability. Currently, bisphosphonate treatment and weight-bearing exercise are commonly used therapeutic approaches, but both with limited long-term success.

stem cells [2] = test: Stem cell conversion to fat cells after radiation; assay type: cell-based; conditions: after exposure to radiation (IR 21d)
Procedure: All treatment was administered with radiation (IR 21d).
Radiation exposure, post-menopausal osteoporosis, and diabetes are conditions that cause stem cells to favor conversion to fat cells instead of conversion to bone cells. This process progresses to tissue dysfunction. Stem cells were treated with P7C3 or with cerium oxide nanoparticles (CNPs) after exposure to radiation. […] All treatment was administered with radiation (IR 21d).

[3] = in vivo; cited from earlier work
[4] = test system: primary and metastatic cancer cell; test: Primary and metastatic cancer cell growth; assay type: cell-based; conditions: at therapeutic levels
From the text: This invention combines these two unique approaches as a bi-modal and multifunctional chimeric nanostrategy to combat against ionizing radiation-induced damage.

osteoclasts = test: Osteoclast maturation (DAPI/Phalloidin staining); assay type: cell-based; conditions: without radiation
Procedure: This treatment was carried out without exposing the osteoclasts to radiation.

mesenchymal stem cells = test: Alkaline phosphatase (ALP) assay after radiation; assay type: cell-based; conditions: treatment 24 h or 48 h after ionizing radiation
From the text: FIGS. 6A-B show results of an alkaline phosphatase (ALP) assay. The micrographs show assessed bone formation after treatment with P7C3, with cerium oxide nanoparticles (CNPs), or with a combination of P7C3 and CNPs.

stem cells [5] = test: Bone mineral formation / new bone deposition after radiation (Alizarin red); assay type: cell-based; conditions: 14 days of culture; treatment 24 h or 48 h after radiation (7 Gy)
Procedure: Radiation reduces the ability of bone cells to produce bone. […] This is further confirmed when the cells are cultured over a longer period of 28 days.
The data showing assessed bone formation was supported by quantification of new bone deposition.
(**** p<0.000) The synergistic effect continues when treatment is administered more than 24 hours after radiation exposure.

bone = conditions: literature refs 15 and 19; cited from earlier work

SMILES: OC(CNc1ccccc1)Cn1c2ccc(Br)cc2c2cc(Br)ccc21 (centres unmarked) [P7C3, aminopropyl carbazole]
- progression of post-menopausal osteoporosis [1]: reduces the progression
- fat formation from stem cells (stem cells [2]): inhibit fat formation
- oral bioavailability [3]: high oral bioavailability
- primary and metastatic cancer cell growth [4]: significantly reduces
- maturation of osteoclasts (osteoclasts): stops the maturation of osteoclasts
- alkaline phosphatase expression / conversion of stem cells to osteoblasts (mesenchymal stem cells): limited upregulation
- new bone deposition (micrographs) (stem cells [5]): does not substantially increase new bone deposition
- countermeasure against ionizing radiation-induced bone damage and/or bone loss (bone): effective countermeasure
